43 molecules from ChEMBL document CHEMBL4806969, “Modulators of mas-related g-protein receptor x4 and related products and methods” (2020) can be followed below.

This test addresses Mas-related G-protein coupled receptor member X4 (Homo sapiens, UniProt Q96LA9). Put plainly: Antagonist activity at human MRGPRX4 expressed in HEK cells incubated in dark for 1 hr at 37 degree C and then incubated for 30 mins at room temperature in presence of […] bilirubin by HTRF assay. It counts as functional, cell-based. For orientation: TR-FRET usually uses a lanthanide donor and a delayed reading to cut background.

Chain of Mas-related G-protein coupled receptor member X4 (Q96LA9 whole entry): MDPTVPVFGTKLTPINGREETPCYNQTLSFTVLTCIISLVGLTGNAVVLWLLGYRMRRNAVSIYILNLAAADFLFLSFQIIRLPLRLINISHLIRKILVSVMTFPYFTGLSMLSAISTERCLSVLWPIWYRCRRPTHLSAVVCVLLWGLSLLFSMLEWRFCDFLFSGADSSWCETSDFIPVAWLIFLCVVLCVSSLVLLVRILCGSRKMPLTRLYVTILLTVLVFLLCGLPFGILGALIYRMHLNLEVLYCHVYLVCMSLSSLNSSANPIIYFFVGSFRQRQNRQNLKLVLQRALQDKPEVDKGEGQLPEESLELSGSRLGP

By IC50 is commonly meant the concentration at which inhibition is half-maximal. `O=C(c1ccc(COc2ccc(C(F)(F)F)cc2Cl)cc1)N1CC2(COC2)C1`: the IC50 was < 2500 nM.

As for `O=C(O)c1cccc(COc2ccc(Cl)cc2Cl)c1Cl`, the IC50 is < 100 nM. The same measure for `FC(F)(F)c1ccc(OCc2cccc(-c3nnn[nH]3)c2)cc1Cl`: < 100 nM. Consider `O=C(O)c1cccc(COc2ccc(C(F)(F)F)c(F)c2)c1`, for which the IC50 is < 100 nM. Take `O=C(O)c1cccc(COc2ccc(C(F)(F)F)cc2Br)c1`: the IC50 is < 100 nM. Consider `Cc1cc(OCc2cccc(C(=O)O)c2)ccc1C(F)(F)F`, for which the IC50 is > 2500 nM. As for `O=C(O)c1cccc(COc2ccc(Cl)c(Cl)c2F)c1`, the IC50 is < 100 nM. Regarding `O=C(O)c1cc(C2CC2)cc(COc2ccc(C(F)(F)F)cc2Cl)n1`, the IC50 is < 100 nM. The same measure for `CC(C)(C)c1ccccc1OCc1cccc(C(=O)O)c1`: > 2500 nM; for `O=C(O)c1cccc(COc2ccc(Cl)c(F)c2)c1`: < 100 nM. On to `Cc1cc(Cl)ccc1OCc1cccc(C(=O)O)c1F`, for which the half-maximal inhibitory concentration (IC50) was < 100 nM. For `Cc1noc(-c2cccc(COc3ccc(C(F)(F)F)cc3Cl)c2)n1`, the IC50 is < 2500 nM. For `N#CCc1ccccc1OCc1cccc(C(=O)O)c1`, the IC50 was > 2500 nM.

`O=C(O)c1c(F)ccc(COc2ccc(C(F)(F)F)cc2Cl)c1F`: the IC50 is < 100 nM. As for `Cc1cc(COc2ccc(C(F)(F)F)cc2Cl)nc(C(=O)O)c1`, the IC50 is < 100 nM. In the case of `O=C(O)c1cccc(COc2c(Cl)cccc2Cl)c1` it was > 2500 nM. The same measure for `O=C(O)c1cccc(COc2ccccc2C(F)F)c1`: > 2500 nM; for `O=C(O)c1cccc(COc2ccc3sccc3c2Cl)c1F`: < 100 nM.

For the molecule `O=C(O)c1cccc(COc2cccc(C(F)F)c2)c1`, the IC50 was > 2500 nM. For `Cc1cc(C(F)(F)F)ccc1OCc1cccc(C(=O)O)c1`, the IC50 was < 100 nM.

Regarding `O=C(O)c1cc(Br)cc(COc2ccc(C(F)(F)F)cc2Cl)n1`, the IC50 was < 100 nM. With `Cc1ccc(OCc2cccc(C(=O)O)c2)c(Cl)c1Cl`, the IC50 was < 100 nM.

As for `O=C(O)c1cccc(COc2ccc(OC(F)(F)F)c(Cl)c2)c1`, the IC50 is < 100 nM. As to `Cc1cc(C(F)(F)F)ccc1OCc1cc(F)cc(C(=O)O)c1`, the IC50 is < 100 nM. On to `N#Cc1cc(COc2ccc(C(F)(F)F)cc2Cl)cc(C(=O)O)c1`, for which the IC50 is < 100 nM.

In the case of `O=C(O)c1nc(COc2ccc(C(F)(F)F)cc2Cl)ccc1F`, the IC50 was < 100 nM. Consider `COC(=O)c1cccc(COc2ccc3ccccc3c2)n1`, for which the IC50 was < 100 nM.

Consider `Cc1cc(COc2ccc(C(F)(F)F)c(Cl)c2)cc(C(=O)O)c1`, for which the IC50 is < 100 nM.

`O=C(O)c1cccc(COc2ccc(C(F)(F)F)cc2)c1F`: the IC50 is < 100 nM.

Take `O=C(O)c1cccc(COc2cccc3c2OC(F)(F)O3)c1`: the IC50 was > 2500 nM. On to `O=C(O)c1cccc(COc2ccc(-c3ccccc3)cc2)c1`, for which the IC50 was > 2500 nM.

As to `Cc1cc(Cl)ccc1OCc1cccc(-c2nnn[nH]2)c1`, the IC50 was < 100 nM. Regarding `O=C(O)c1cccc(NC(=O)c2cccc(COc3ccc(C(F)(F)F)cc3Cl)c2)c1`, the IC50 is > 2500 nM. As to `O=C(O)c1cc(Cl)cc(COc2ccc(Cl)cc2Cl)c1`, the IC50 was < 100 nM. Regarding `Fc1ccc(OCc2cccc(-c3nnn[nH]3)c2)c(Cl)c1`, the IC50 is < 100 nM. Turning to `Fc1cc(OCc2cccc(-c3nnn[nH]3)c2)ccc1C(F)(F)F`, the IC50 was < 100 nM. In the case of `Cc1cc(OCc2cccc(C(=O)O)c2)ccc1OC(F)(F)F`, the IC50 was > 2500 nM.

On to `O=C(O)c1cccc(COc2ccc3ccccc3c2)n1`, for which the concentration for half-maximal inhibition (IC50) is < 100 nM. With `O=C(O)c1cccc(COc2ccc(OC(F)(F)F)cc2Cl)c1F`, the IC50 is < 100 nM. Consider `O=C(O)c1cccc(COc2ccc(Oc3ccccc3)cc2)c1`, for which the IC50 was > 2500 nM. Regarding `COC(=O)c1cccc(COc2ccc(C(F)(F)F)cc2Cl)n1`, the IC50 was < 100 nM. Take `O=C(O)c1cc(F)cc(COc2ccc(Cl)cc2Cl)c1`: the IC50 is < 100 nM. Consider `Cc1cc(C(F)(F)F)ccc1OCc1cccc(-c2nnn[nH]2)c1`, for which the IC50 was < 100 nM.
